Reference: the NIST ThermoML archive (doi:10.1016/j.jct.2010.05.007)
Numbers after ± are expanded uncertainties.

Columns and labels:
[1] = molar heat capacity at constant pressure; conditions: 298 K; 101.33 kPa; Liquid; Vacuum adiabatic calorimetry
[2] = Crystal 1; Adiabatic calorimetry
[3] = Molar enthalpy of transition or fusion; conditions: Crystal 1; Adiabatic calorimetry

## CCCCn1cc[n+](C)c1.[I-] [1-butyl-3-methylimidazolium iodide]
[1]
  molar heat capacity at constant pressure: 310 ± 2.4 J/K/mol
[2]
  Triple point temperature: 291.87 ± 0.05 K
[3]
  Molar enthalpy of transition or fusion: 4.54 ± 0.0478 kcal/mol
